For data set [1], the system named is S. aureus 1816 (MSSA). In words: MIC/MBC by broth microdilution reference method. In kind it is cell-based, Staphylococcus aureus. As to conditions: Staphylococcus aureus. (In broth dilution the organism is exposed to a series of concentrations in liquid medium.)
Data set [2] relates to S. aureus 1817 (MSSA). In words: MIC/MBC by broth microdilution reference method. In kind it is cell-based, Staphylococcus aureus. As to conditions: Staphylococcus aureus.
For data set [3], the system named is osteoblasts (MG-63). As for the experimental part: (§1) In both models, the viability was assessed using the MTT assay to determine the potential cytotoxicity of antimicrobials on untreated and infected/treated cells. Briefly, an MTT solution (0.5 mg/mL) was added to the cell medium without FBS. After washing with PBS and a 30 min incubation at 37°C, the formazan crystals formed were dissolved in DMSO. Absorbance values at 540 nm were measured using a BioTek Synergy 2 microplate reader.

Data set [4] concerns macrophages (THP-1). On the procedure:
as §1

Data set [5] relates to S. aureus 1333 (MSSA). The data set is described as follows: MIC/MBC by broth microdilution reference method. As to conditions: Staphylococcus aureus. In kind it is cell-based, Staphylococcus aureus.
For data set [6], the system named is intra-osteoblastic S. aureus. The data set is described as follows: Osteoblast infection model (MG-63), intracellular activity. In kind it is cell-based, Staphylococcus aureus. As to conditions: MG-63, all four isolates (2 MSSA and 2 MRSA), 2 x MIC, 3 h after treatment, vs untreated cells. On the procedure:
The osteoblast infection model was conducted using MG-63 (CRL-1427) osteoblastic cells, following previously published procedures.[19] Briefly, MG-63 cells were cultured at 37°C in a 5% CO2 environment and passaged weekly for up to 20 weeks. The culture medium used was DMEM supplemented with 10% FBS, 25 mM HEPES, 2 mM L-glutamine, with or without antibiotics (100 U/mL penicillin plus 100 mg/L streptomycin). For the assays, MG-63 cells were seeded in 24-well plates until reaching 70%–80% confluence. Bacterial cell suspensions grown overnight in BHI broth were prepared and adjusted to an moi of 50, and then introduced to the osteoblasts. After a 2 h coincubation to facilitate bacterial adhesion, MG-63 cells were rinsed and treated with 100 mg/L gentamicin for 1 h to eliminate extracellular bacterial cells. […] Finally, intracellular bacterial cells were quantified in cellular lysates (following osmotic shock) by plating them onto BHI agar.
Figure 1. […] Data represent the mean ± SD from three independent experiments. Intracellular cfu counts were normalized relative to untreated cells (depicted by black histograms), and differences between treated and untreated cells, as well as between the two compounds, were assessed using the Mann–Whitney U-test. *P < 0.05; **P < 0.01; ***P < 0.001; ****P < 0.0001.

For data set [7], the system named is all S. aureus isolates. The data set is described as follows: MIC/MBC by broth microdilution, summary over all isolates. In kind it is cell-based, Staphylococcus aureus. To be noted: Staphylococcus aureus, read-out: MICs for all S. aureus isolates.
Data set [8] concerns S. aureus 1334 (MSSA). In words: MIC/MBC by broth microdilution reference method. In kind it is cell-based, Staphylococcus aureus. To be noted: Staphylococcus aureus.
The test system of data set [9] is intra-macrophagic S. aureus. The data set is described as follows: Macrophage infection model (THP-1), intracellular activity. In kind it is cell-based, Staphylococcus aureus. As to conditions: THP-1, MRSA 1814, MRSA 1815, MSSA 1333 and MSSA 1334, 2 x MIC, 24 h after treatment, vs untreated cells. On the procedure:
The macrophage infection model was performed using the THP-1 human monocytic cell line (ATCC, Rockville, USA). In brief, cells were cultured in the Roswell Park Memorial Institute (RPMI) medium supplemented with 10% FBS in T75 flasks at 37°C and 5% CO2, and were maintained through weekly transfers within passages 2 to 20. For the assays, THP-1 cells were seeded in 12-well plates and differentiated into macrophages with phorbol myristate acetate (PMA) for 72 h until they reached approximately 80% confluence. Bacterial suspensions, grown overnight in BHI, were prepared and adjusted to an moi of 10, and then introduced to the macrophages. After a 2 h coincubation to facilitate bacterial adherence, the cells were washed and treated with 100 mg/L gentamicin for 1 h. […] Finally, intracellular bacterial cells were enumerated from cellular lysates (following osmotic shock) by plating them onto BHI agar. Infected but untreated cells were used as a control in all experiments. The number of cfu in treated cells was standardized as a percentage of the controls.
Figure 2. […] Data represent the mean ± SD of three independent experiments. Intracellular cfu counts were normalized relative to untreated cells (depicted by black histograms), and differences between treated and untreated cells, as well as between the two compounds, were assessed using the Mann–Whitney U-test. ***P < 0.001; ****P < 0.0001.

The test system of data set [10] is S. aureus 1815 (MRSA). In words: MIC/MBC by broth microdilution reference method. In kind it is cell-based, Staphylococcus aureus. To be noted: Staphylococcus aureus.
The subject of data set [11] is S. aureus ATCC 29213 (MSSA reference strain). In words: MIC/MBC by broth microdilution reference method. In kind it is cell-based, Staphylococcus aureus. To be noted: Staphylococcus aureus.
The test system of data set [12] is S. aureus 1814 (MRSA). In words: MIC/MBC by broth microdilution reference method. In kind it is cell-based, Staphylococcus aureus. As to conditions: Staphylococcus aureus.
Data set [13] concerns S. aureus 1818 (MSSA). The data set is described as follows: MIC/MBC by broth microdilution reference method. In kind it is cell-based, Staphylococcus aureus. To be noted: Staphylococcus aureus.
The test system of data set [14] is MSSA 1334. In words: Mouse model of septic arthritis. In kind it is in vivo. As to conditions: MSSA 1334-infected mice, Pep16 10 mg/kg or vancomycin 100 mg/kg subcutaneous daily. As for the experimental part:
Female Swiss mice, obtained from Janvier Labs and aged between 11 and 13 weeks with an approximate weight of 34 g, were used. The experiments were conducted in the ARCHE animal facility (Biosit) in Rennes. Mice were inoculated IV with 200 μL of a 0.9% NaCl solution containing approximately 10^8 cfu of the 1334 strain (MSSA). […] These treatments were administered daily for a duration of 7 days. […] The mice were monitored on a daily basis, and on the seventh day, they were humanely euthanized using CO2. Subsequently, knee joints, spleen and kidneys were excised, weighed and homogenized in 0.9% NaCl using a Polytron PT 3100D homogenizer (Kinematica, Switzerland). Bacterial loads were determined by plating serial dilutions onto BHI agar and expressed as log10 cfu/g.
Figure 3. Bacterial loads (in log cfu/g) at Day 7 in knee joints, kidneys and spleen from mice infected by MSSA 1334. Mice were initially inoculated with approximately 1 × 10^8 cfu of MSSA 1334. […] Treatments were administered via subcutaneous injection and continued daily until the conclusion of the experiment. Individual dots on the graph represent cfu counts for single animals (enumerated at Day 7), with black horizontal lines indicating median values. The experiments were performed with five mice per condition, in triplicate for Pep16 and saline solution, and in duplicate for vancomycin. […]

The test system of data set [15] is S. aureus. Set-up: method as in ref 11 (Chauvelot et al.). To be noted: ref 11 (Chauvelot et al.); cited from earlier work.
The test system of data set [16] is S. aureus in osteoblasts. Also on record: method as in PMID 34423360. As to conditions: at 100x its MIC; cited from earlier work.

Values after ≈ are worked out from the molar mass of the structure shown. Read-outs that look alike come from different tables or passages of the source.

As a reminder, the MBC is the lowest tested concentration that kills the bacteria rather than only halting them. As to `C[C@H]1COc2c(N3CCN(C)CC3)c(F)cc3c(=O)c(C(=O)O)cn1c23` [LVX, levofloxacin], the MBC in [1] (strain 1816, MSSA multi-susceptible, broth microdilution, read-out: MBC) was 0.25 µg/mL (≈ 0.692 µM); in [2] (strain 1817, MSSA erythromycin resistant, broth microdilution, read-out: MBC), 0.25 µg/mL (≈ 0.692 µM); in [5] (strain 1333, MSSA multi-susceptible, broth microdilution, read-out: MBC), 0.5 µg/mL (≈ 1.38 µM); in data set [8] (strain 1334, MSSA multi-susceptible, broth microdilution, read-out: MBC) it was 0.5 µg/mL (≈ 1.38 µM); in [10] (strain 1815, MRSA gentamicin and erythromycin resistant, broth microdilution, read-out: MBC), 0.5 µg/mL (≈ 1.38 µM); in data set [11] (reference strain ATCC 29213, MSSA, broth microdilution, read-out: MBC), 0.5 µg/mL (≈ 1.38 µM). The minimum bactericidal concentration (MBC) was determined as 4 µg/mL (≈ 11.1 µM) in data set [12] (strain 1814, MRSA ciprofloxacin resistant, broth microdilution, read-out: MBC) and 0.25 µg/mL (≈ 0.692 µM) in [13] (strain 1818, MSSA multi-susceptible, broth microdilution, read-out: MBC). The MIC was 0.25 µg/mL (≈ 0.692 µM) in data set [1] (strain 1816, MSSA multi-susceptible, broth microdilution, read-out: MIC); 0.25 µg/mL (≈ 0.692 µM) in [2] (strain 1817, MSSA erythromycin resistant, broth microdilution, read-out: MIC); 0.5 µg/mL (≈ 1.38 µM) in [5] (strain 1333, MSSA multi-susceptible, broth microdilution, read-out: MIC); 0.25 to 4 µg/mL (≈ 0.692 to 11.1 µM) in data set [7] (summary over all S. aureus isolates of Table 1, broth microdilution); 0.5 µg/mL (≈ 1.38 µM) in data set [8] (strain 1334, MSSA multi-susceptible, broth microdilution, read-out: MIC); 0.5 µg/mL (≈ 1.38 µM) in data set [10] (strain 1815, MRSA gentamicin and erythromycin resistant, broth microdilution, read-out: MIC). In addition, the MIC in data set [11] (reference strain ATCC 29213, MSSA, broth microdilution, read-out: MIC) worked out at 0.5 µg/mL (≈ 1.38 µM); in data set [12] (strain 1814, MRSA ciprofloxacin resistant, broth microdilution, read-out: MIC) it was 4 µg/mL (≈ 11.1 µM); in data set [13] (strain 1818, MSSA multi-susceptible, broth microdilution, read-out: MIC) it was 0.25 µg/mL (≈ 0.692 µM). In addition, in data set [3], the “direct cytotoxicity on uninfected osteoblasts (MTT)” value is given as “did not observe any significant direct cytotoxicity”. Also, the “direct cytotoxicity on uninfected macrophages (MTT)” value in data set [4] is “no significant direct cytotoxicity”. Besides, the “effect on intracellular bacterial load in osteoblasts” value in data set [6] was “significantly reduced the bacterial load”. Further, in data set [9], the “effect on intracellular inoculum in macrophages” value was “significantly reducing the intracellular inoculum”.

For the molecule `CN[C@H](CC(C)C)C(=O)N[C@H]1C(=O)N[C@@H](CC(N)=O)C(=O)N[C@H]2C(=O)N[C@H]3C(=O)N[C@H](C(=O)N[C@H](C(=O)O)c4cc(O)cc(O)c4-c4cc3ccc4O)[C@H](O)c3ccc(c(Cl)c3)Oc3cc2cc(c3O[C@@H]2O[C@H](CO)[C@@H](O)[C@H](O)[C@H]2O[C@H]2C[C@](C)(N)[C@H](O)[C@H](C)O2)Oc2ccc(cc2Cl)[C@H]1O` [VAN, vancomycin], the MBC in data set [1] (MSSA), in [2] (MSSA), in [5] (MSSA), in data set [8] (MSSA), in data set [10] (MRSA) and in [11] was 0.5 µg/mL (≈ 0.345 µM) each time. The MBC in data set [12] (MRSA) and in data set [13] (MSSA) was 0.5 µg/mL (≈ 0.345 µM) in each case. The MIC in data set [1] (MSSA), in data set [2] (MSSA), in data set [5] (MSSA), in [7], in data set [8] (MSSA) and in [10] (MRSA) was 0.5 µg/mL (≈ 0.345 µM) each time. The MIC in data set [11], in data set [12] (MRSA) and in data set [13] (MSSA) was 0.5 µg/mL (≈ 0.345 µM) in each case. In data set [14], the “survival of infected mice at Day 7” value is reported as “had survived at Day 7”.

As to `CN[C@H]1C(=O)N[C@@H]2Cc3ccc(cc3)Oc3cc4cc(c3O[C@@H]3O[C@H](C(=O)O)[C@@H](O)[C@H](O)[C@H]3NC(=O)CCCCCCCCC(C)C)Oc3ccc(cc3Cl)[C@@H](O)[C@@H]3NC(=O)[C@H](NC(=O)[C@@H]4NC(=O)[C@@H](NC2=O)c2cc(cc(O)c2Cl)Oc2cc1ccc2O)c1ccc(O)c(c1)-c1c(O[C@H]2O[C@H](CO)[C@@H](O)[C@H](O)[C@@H]2O)cc(O)cc1[C@@H](C(=O)NCCCN(C)C)NC3=O` [dalbavancin], in data set [15], the MIC was 0.125 µg/mL (≈ 0.0688 µM). In addition, the “peak of reduction of S. aureus in osteoblasts” value in data set [16] is recorded as 51.6%.
